US20240199605A1, “SMALL MOLECULAR INHIBITORS OF NF-kB INDUCING KINASE” (Janssen Pharmaceutica NV, priority 2019, published 2024)
Where two headings read alike, the source gives them in different places.

What was measured:
[1] = tested on: p-IKKα levels in L363 (NIK translocated multiple myeloma) cells; assay: Effect of compounds on p-IKKα levels in L363 cells (AlphaLISA SureFire Ultra); assay type: cell-based, human; settings: BAFF stimulated, MG132, 6 h, average of values, read-out: Assay 2 IC50
In short: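 Inhibition of p-IKKα (Ser176/180) read by AlphaLISA after 6 h, 37 °C compound exposure (11-point 1:3 series, 0.3% DMSO) of L363 cells pre-incubated overnight ± 250 ng/ml BAFF and plated ± BAFF ± 10 μM MG132. Normalised to BAFF/MG132/DMSO and unstimulated controls; IC50 by sigmoidal fitting, duplicates.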

[2] = target: recombinant human NF-kappaB-inducing kinase (NIK/MAP3K14) (Homo sapiens (Human), UniProt Q99558); assay: Inhibition of auto-phosphorylation of recombinant human NIK/MAP3K14 (AlphaScreen); assay type: biochemical; settings: NIK auto-phosphorylation, 5 μM ATP, 1 nM NIK, 2 h at 25° C.; average of values
In short: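 GST-tagged NIK (1 nM) auto-phosphorylated with 5 μM ATP for 2 h at 25° C. in 50 mM Tris pH 7.5, 5 mM MgCl2, 1 mM EGTA, 1 mM DTT, 0.1 mM Na3VO4, 0.01% Tween 20 (0.7% DMSO). Detected by AlphaScreen via anti-phospho-IKK Ser176/180 antibody; IC50 from sigmoidal fit of % inhibition versus log concentration.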

recombinant human NF-kappaB-inducing kinase (NIK/MAP3K14), sequence (Q99558 whole entry): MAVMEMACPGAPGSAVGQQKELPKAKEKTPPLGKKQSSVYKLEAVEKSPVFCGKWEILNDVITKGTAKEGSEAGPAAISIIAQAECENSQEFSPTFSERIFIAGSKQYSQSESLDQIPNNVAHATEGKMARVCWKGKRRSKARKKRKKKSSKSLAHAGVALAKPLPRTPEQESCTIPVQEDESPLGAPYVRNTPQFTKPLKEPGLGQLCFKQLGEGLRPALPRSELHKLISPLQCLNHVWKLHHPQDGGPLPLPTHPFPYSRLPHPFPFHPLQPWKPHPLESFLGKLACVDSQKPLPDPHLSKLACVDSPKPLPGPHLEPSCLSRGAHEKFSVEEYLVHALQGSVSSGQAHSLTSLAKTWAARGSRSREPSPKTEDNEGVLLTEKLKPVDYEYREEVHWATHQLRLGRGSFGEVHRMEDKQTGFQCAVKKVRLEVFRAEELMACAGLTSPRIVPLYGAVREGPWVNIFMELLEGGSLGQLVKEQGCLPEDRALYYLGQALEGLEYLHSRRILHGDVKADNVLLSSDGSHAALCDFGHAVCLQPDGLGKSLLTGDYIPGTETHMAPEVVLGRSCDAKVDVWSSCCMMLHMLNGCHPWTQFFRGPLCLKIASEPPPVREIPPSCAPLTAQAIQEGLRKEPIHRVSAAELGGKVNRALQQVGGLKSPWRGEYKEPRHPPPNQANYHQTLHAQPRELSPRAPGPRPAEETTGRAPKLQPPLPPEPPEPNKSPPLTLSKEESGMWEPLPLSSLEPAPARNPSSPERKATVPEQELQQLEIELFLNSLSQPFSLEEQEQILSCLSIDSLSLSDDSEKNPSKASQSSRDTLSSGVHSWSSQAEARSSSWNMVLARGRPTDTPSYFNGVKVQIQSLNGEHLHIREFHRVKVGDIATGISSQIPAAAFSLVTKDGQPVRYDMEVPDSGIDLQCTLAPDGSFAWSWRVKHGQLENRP

Row | Compound | IC50 ([1]; Homo sapiens, L-363, 6 h) | IC50 [2] | IC50 [1]
1 | Cc1ncc(Br)c2ccc(-c3cccc(C#C[C@]4(O)CCN(C)C4=O)c3)nc12 [Example 249, (R)-3-((3-(5-Bromo-8-methyl-1,7-naphthyridin-2-yl)phenyl)ethynyl)-3-hydroxy-1-methylpyrrolidin-2-one] | 0.47 µM | 0.0073 µM | –
2 | Cc1nc(N)c2nc(-c3cccc(C#C[C@]4(O)CCN(C)C4=O)c3)ccc2n1 [Example 6, (R)-3-((3-(4-Amino-2-methylpyrido[3,2-d]pyrimidin-6-yl)phenyl)ethynyl)-3-hydroxy-1-methylpyrrolidin-2-one] | 0.012 µM | 0.0006 µM | –
3 | Cc1nc(N)c2nc(-c3cccc(C#C[C@]4(O)CCN(C)C4=O)c3)cc(C)c2n1 [Example 285, (R)-3-((3-(4-Amino-2,8-dimethylpyrido[3,2-d]pyrimidin-6-yl)phenyl)ethynyl)-3-hydroxy-1-methylpyrrolidin-2-one] | 0.012 µM | 0.0017 µM | –
4 | Cc1cc([C@](C)(O)C#Cc2cccc(-c3ccc4ccnc(N)c4n3)c2)no1 [Example 89, (R)-4-[3-(8-Amino-1,7-naphthyridin-2-yl)phenyl]-2-(5-methylisoxazol-3-yl)but-3-yn-2-ol] | 0.59 µM | 0.0023 µM | –
5 | CN1CC[C@@](O)(C#Cc2cccc(-c3ccc4ncnc(N(C)C)c4n3)c2)C1=O [Example 25, (R)-3-((3-(4-(Dimethylamino)pyrido[3,2-d]pyrimidin-6-yl)phenyl)ethynyl)-3-hydroxy-1-methylpyrrolidin-2-one] | 0.18 µM | 0.0021 µM | –
6 | [2H]C([2H])([2H])N1CCC(O)(C#Cc2cccc(-c3ncc4c(C)cnc(N)c4n3)c2)C1=O (stereo in doubt) [Example 87, (R)-3-[2-[3-(8-Amino-5-methyl-pyrido[3,4-d]pyrimidin-2-yl)phenyl]ethynyl]-3-hydroxy-1-(trideuteriomethyl)pyrrolidin-2-one] | 0.006 µM | ≤ 0.0005 µM | –
7 | [2H]c1nc(N)c2nc(-c3cccc(C#C[C@]4(O)CCN(C)C4=O)c3)cc(C3CCNCC3)c2n1 [Example 287, (R)-3-((3-(4-Amino-8-(piperidin-4-yl)pyrido[3,2-d]pyrimidin-6-yl-2-d)phenyl)ethynyl)-3-hydroxy-1-methylpyrrolidin-2-one] | > 5 µM | 0.044 µM | –
8 | Nc1nccc2cnc(-c3cccc(C#CC4(O)CCCC4)c3)nc12 [Example 33, 1-[2-[3-(8-Aminopyrido[3,4-d]pyrimidin-2-yl)phenyl]ethynyl]cyclopentanol] | 0.62 µM | 0.0045 µM | –
9 | Cc1nc(N)c2nc(-c3cccc(C#C[C@](C)(O)c4scnc4C)c3)ccc2n1 [Example 162, (S)-4-(3-(4-Amino-2-methylpyrido[3,2-d]pyrimidin-6-yl)phenyl)-2-(4-methylthiazol-5-yl)but-3-yn-2-ol] | > 5 µM | > 5 µM | –
10 | CN1CC[C@@](O)(C#Cc2cccc(-c3ccc4c(C#N)cnc(N)c4n3)c2)C1=O [Example 118, (R)-8-Amino-2-[3-[2-(3-hydroxy-1-methyl-2-oxo-pyrrolidin-3-yl)ethynyl]phenyl]-1,7-naphthyridine-5-carbonitrile] | 0.0015 µM | ≤ 0.0005 µM | –
11 | CN1CC[C@@](O)(C#Cc2cccc(-c3cc(-c4cccs4)c4ncnc(N)c4n3)c2)C1=O [Example 311, (R)-3-((3-(4-Amino-8-(thiophen-2-yl)pyrido[3,2-d]pyrimidin-6-yl)phenyl)ethynyl)-3-hydroxy-1-methylpyrrolidin-2-one] | 0.0036 µM | ≤ 0.0005 µM | –
12 | Nc1nccc2cnc(-c3cccc(C#CC4(O)CCN(CC(F)(F)F)C4=O)c3)nc12 (stereo in doubt) [Example 73, (S)-3-[2-[3-(8-Aminopyrido[3,4-d]pyrimidin-2-yl)phenyl]ethynyl]-3-hydroxy-1-(2,2,2-trifluoroethyl)pyrrolidin-2-one] | > 5 µM | 1.73 µM | –
13 | Cc1nc(-c2cccc(C#Cc3ccn[nH]3)c2)nc2c(N)nccc12 [Example 107, 2-(3-((1H-Pyrazol-5-yl)ethynyl)phenyl)-4-methylpyrido[3,4-d]pyrimidin-8-amine] | > 5 µM | 0.052 µM | –

Now from value to compound:

Row | IC50 ([1]; Homo sapiens, L-363, 6 h) | IC50 [2] | IC50 [1] | Compound
14 | > 5 µM | 0.24 µM | – | CN1CC[C@@](O)(C#Cc2cccc(-c3ccc4nccc(N)c4n3)c2)C1=O [Example 219, (R)-3-((3-(8-Amino-1,5-naphthyridin-2-yl)phenyl)ethynyl)-3-hydroxy-1-methylpyrrolidin-2-one]
15 | > 5 µM | 0.35 µM | – | Cc1nc(N)c2nc(-c3cccc(C#C[C@@](C)(O)c4scnc4C)c3)ccc2n1 [Example 163, (R)-4-(3-(4-Amino-2-methylpyrido[3,2-d]pyrimidin-6-yl)phenyl)-2-(4-methylthiazol-5-yl)but-3-yn-2-ol]
16 | 0.048 µM | 0.0045 µM | – | Cc1ccc(C#C[C@]2(O)CCN(C)C2=O)cc1-c1nc(C)c2ncnc(N)c2n1 [Example 301, (R)-3-[2-[3-(8-Amino-4-methyl-pyrimido[5,4-d]pyrimidin-2-yl)-4-methyl-phenyl]ethynyl]-3-hydroxy-1-methyl-pyrrolidin-2-one]
17 | > 5 µM | 4.03 µM | – | Cc1nc(N)c2nc(-c3cccc(C#C[C@](C)(O)c4cnccn4)c3)ccc2n1 [Example 201, (S)-4-[3-(4-Amino-2-methyl-pyrido[3,2-d]pyrimidin-6-yl)phenyl]-2-pyrazin-2-yl-but-3-yn-2-ol]
18 | 0.1 µM | 0.0012 µM | – | CN1CC[C@@](O)(C#Cc2cccc(-c3ccc4nc(N)nc(N)c4n3)c2)C1=O [Example 203, (R)-3-((3-(2,4-Diaminopyrido[3,2-d]pyrimidin-6-yl)phenyl)ethynyl)-3-hydroxy-1-methylpyrrolidin-2-one]
19 | 0.0066 µM | ≤ 0.0005 µM | – | Cc1ccc(C#C[C@]2(O)CCn3ccnc32)cc1-c1nc2c(N)ncnc2s1 [Example 183, (R)-7-[2-[3-(7-Aminothiazolo[5,4-d]pyrimidin-2-yl)-4-methyl-phenyl]ethynyl]-5,6-dihydropyrrolo[1,2-a]imidazol-7-ol]
20 | 0.058 µM | 0.0007 µM | – | CC(C)Cc1cnc(N)c2nc(-c3cccc(C#C[C@]4(O)CCN(C)C4=O)c3)ncc12 [Example 130, (R)-3-((3-(8-Amino-5-isobutylpyrido[3,4-d]pyrimidin-2-yl)phenyl)ethynyl)-3-hydroxy-1-methylpyrrolidin-2-one]
21 | 0.48 µM | 0.0066 µM | – | Cc1nc(-c2cccc(C#C[C@]3(O)CCN(CC(F)(F)F)C3=O)c2)nc2c(N)nccc12 [Example 92, (R)-3-[2-[3-(8-Amino-4-methyl-pyrido[3,4-d]pyrimidin-2-yl)phenyl]ethynyl]-3-hydroxy-1-(2,2,2-trifluoroethyl)pyrrolidin-2-one]
22 | > 5 µM | 1.51 µM | – | CN1CC[C@@](O)(C#Cc2cccc(-c3ccc4ncnc(C#N)c4n3)c2)C1=O [Example 279, (R)-6-(3-((3-Hydroxy-1-methyl-2-oxopyrrolidin-3-yl)ethynyl)phenyl)pyrido[3,2-d]pyrimidine-4-carbonitrile]
23 | 0.16 µM | 0.0035 µM | – | COCc1nc(N)c2nc(-c3cccc(C#C[C@]4(O)CCN(C)C4=O)c3)ccc2n1 [Example 206, (R)-3-((3-(4-Amino-2-(methoxymethyl)pyrido[3,2-d]pyrimidin-6-yl)phenyl)ethynyl)-3-hydroxy-1-methylpyrrolidin-2-one]
24 | – | 4.22 µM | > 5 µM | [2H]C([2H])([2H])N1CC[C@@](O)(C#Cc2ccc(C)c(-c3ccc4ccnc(N)c4c3)c2)C1=O (single isomer, unassigned) [Example 71]
25 | 0.93 µM | 0.056 µM | – | CN1CC[C@@](O)(C#Cc2cccc(-c3ccc4ncnc(NCC(F)F)c4n3)c2)C1=O [Example 241, (R)-3-((3-(4-((2,2-Difluoroethyl)amino)pyrido[3,2-d]pyrimidin-6-yl)phenyl)ethynyl)-3-hydroxy-1-methylpyrrolidin-2-one]
26 | 0.12 µM | ≤ 0.0005 µM | – | COc1cc(-c2cccc(C#C[C@]3(O)CCN(C)C3=O)c2)cc2c(N)ncnc12 [Example 114, (R)-3-((3-(4-Amino-8-methoxyquinazolin-6-yl)phenyl)ethynyl)-3-hydroxy-1-methylpyrrolidin-2-one]
27 | 0.042 µM | ≤ 0.0005 µM | – | CN1CC[C@@](O)(C#Cc2cccc(-c3cc(C(F)(F)F)c4ncnc(N)c4c3)c2)C1=O [Example 115, (R)-3-((3-(4-Amino-8-(trifluoromethyl)quinazolin-6-yl)phenyl)ethynyl)-3-hydroxy-1-methylpyrrolidin-2-one]
28 | 0.21 µM | 0.0057 µM | – | CN1CC[C@@](O)(C#Cc2cccc(-c3ccc4ncnc(N5CC(F)(F)C5)c4n3)c2)C1=O [Example 232, (R)-3-((3-(4-(3,3-Difluoroazetidin-1-yl)pyrido[3,2-d]pyrimidin-6-yl)phenyl)ethynyl)-3-hydroxy-1-methylpyrrolidin-2-one]
29 | 0.13 µM | 0.0025 µM | – | C[C@@](O)(C#Cc1cccc(-c2nc(C(F)(F)F)c3ccnc(N)c3n2)c1)c1nccs1 [Example 49, (R)-4-(3-(8-Amino-4-(trifluoromethyl)pyrido[3,4-d]pyrimidin-2-yl)phenyl)-2-(thiazol-2-yl)but-3-yn-2-ol]
30 | 0.038 µM | 0.0015 µM | – | CC(C)c1nc(-c2cccc(C#C[C@]3(O)CCN(C)C3=O)c2)nc2c(N)nccc12 [Example 98, (R)-3-((3-(8-Amino-4-isopropylpyrido[3,4-d]pyrimidin-2-yl)phenyl)ethynyl)-3-hydroxy-1-methylpyrrolidin-2-one]
